From ChEMBL document CHEMBL4184286, “Discovery of morpholine-based aryl sulfonamides as Nav1.7 inhibitors” (Bioorg Med Chem Lett, 2018)

Legend:
[1] = biological target: Sodium channel protein type 9 subunit alpha (Homo sapiens, UniProt Q15858); test: Antagonist activity at recombinant human Nav1.7 expressed in HEK293 cells assessed as reduction in channel current at -60 mV holding potential after 600 secs by barracuda automated electrophysiology method; type: cell-based
[2] = biological target: Sodium channel protein type 5 subunit alpha (Homo sapiens, UniProt Q14524); test: Antagonist activity at recombinant human Nav1.5 expressed in HEK293 cells assessed as reduction in channel current at -50 mV holding potential after 600 secs by barracuda automated electrophysiology method; type: ADME, cell-based
Chain of Sodium channel protein type 5 subunit alpha (Q14524 whole entry): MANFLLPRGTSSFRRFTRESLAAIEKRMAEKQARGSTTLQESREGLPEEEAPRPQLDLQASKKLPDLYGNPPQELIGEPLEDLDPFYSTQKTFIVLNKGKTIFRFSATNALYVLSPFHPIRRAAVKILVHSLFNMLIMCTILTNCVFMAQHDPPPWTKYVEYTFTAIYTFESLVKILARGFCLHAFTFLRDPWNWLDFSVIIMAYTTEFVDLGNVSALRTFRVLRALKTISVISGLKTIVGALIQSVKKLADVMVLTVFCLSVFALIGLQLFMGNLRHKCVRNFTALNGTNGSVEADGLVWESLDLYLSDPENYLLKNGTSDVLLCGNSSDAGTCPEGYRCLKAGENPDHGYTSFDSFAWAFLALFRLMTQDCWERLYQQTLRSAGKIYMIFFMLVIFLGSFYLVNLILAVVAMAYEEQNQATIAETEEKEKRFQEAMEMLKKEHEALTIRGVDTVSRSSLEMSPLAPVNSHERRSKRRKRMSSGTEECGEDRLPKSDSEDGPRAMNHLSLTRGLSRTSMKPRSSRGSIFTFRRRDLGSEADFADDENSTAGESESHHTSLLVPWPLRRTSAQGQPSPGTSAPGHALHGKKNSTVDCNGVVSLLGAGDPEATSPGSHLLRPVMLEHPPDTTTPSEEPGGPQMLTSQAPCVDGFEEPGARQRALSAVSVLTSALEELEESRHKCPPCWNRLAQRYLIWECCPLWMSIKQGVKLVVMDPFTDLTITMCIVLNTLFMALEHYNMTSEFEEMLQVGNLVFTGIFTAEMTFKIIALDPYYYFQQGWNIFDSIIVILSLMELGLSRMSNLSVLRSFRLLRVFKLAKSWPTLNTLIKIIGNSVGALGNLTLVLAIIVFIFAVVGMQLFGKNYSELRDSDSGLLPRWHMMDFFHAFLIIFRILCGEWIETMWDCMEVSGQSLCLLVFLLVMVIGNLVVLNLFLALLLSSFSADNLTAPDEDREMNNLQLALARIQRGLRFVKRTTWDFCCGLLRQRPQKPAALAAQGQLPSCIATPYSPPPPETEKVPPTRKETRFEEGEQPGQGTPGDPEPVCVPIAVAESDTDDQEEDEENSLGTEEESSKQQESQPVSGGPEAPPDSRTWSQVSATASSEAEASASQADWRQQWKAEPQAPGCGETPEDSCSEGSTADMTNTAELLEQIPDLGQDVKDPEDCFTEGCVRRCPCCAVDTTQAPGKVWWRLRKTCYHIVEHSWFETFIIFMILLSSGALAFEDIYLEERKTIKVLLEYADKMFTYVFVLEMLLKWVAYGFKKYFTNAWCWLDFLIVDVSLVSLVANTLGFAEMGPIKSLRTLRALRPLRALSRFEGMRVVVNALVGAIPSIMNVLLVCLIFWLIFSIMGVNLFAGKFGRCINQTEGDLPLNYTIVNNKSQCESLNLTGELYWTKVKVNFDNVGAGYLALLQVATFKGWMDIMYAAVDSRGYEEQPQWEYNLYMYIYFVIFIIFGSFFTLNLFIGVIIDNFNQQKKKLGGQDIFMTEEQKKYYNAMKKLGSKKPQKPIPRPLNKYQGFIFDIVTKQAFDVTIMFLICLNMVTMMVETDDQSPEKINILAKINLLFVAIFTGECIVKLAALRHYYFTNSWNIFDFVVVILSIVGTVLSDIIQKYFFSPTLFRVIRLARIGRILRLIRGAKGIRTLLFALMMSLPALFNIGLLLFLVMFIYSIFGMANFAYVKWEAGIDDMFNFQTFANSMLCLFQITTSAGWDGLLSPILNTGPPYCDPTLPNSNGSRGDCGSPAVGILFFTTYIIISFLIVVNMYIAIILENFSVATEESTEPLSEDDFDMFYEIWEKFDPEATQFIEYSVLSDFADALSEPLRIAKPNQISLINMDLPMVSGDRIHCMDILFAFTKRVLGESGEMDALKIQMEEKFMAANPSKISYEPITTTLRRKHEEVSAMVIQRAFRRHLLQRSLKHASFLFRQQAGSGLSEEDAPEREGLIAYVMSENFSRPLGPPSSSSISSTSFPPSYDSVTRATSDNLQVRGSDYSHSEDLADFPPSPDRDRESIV

Chain of Sodium channel protein type 9 subunit alpha (Q15858 whole entry): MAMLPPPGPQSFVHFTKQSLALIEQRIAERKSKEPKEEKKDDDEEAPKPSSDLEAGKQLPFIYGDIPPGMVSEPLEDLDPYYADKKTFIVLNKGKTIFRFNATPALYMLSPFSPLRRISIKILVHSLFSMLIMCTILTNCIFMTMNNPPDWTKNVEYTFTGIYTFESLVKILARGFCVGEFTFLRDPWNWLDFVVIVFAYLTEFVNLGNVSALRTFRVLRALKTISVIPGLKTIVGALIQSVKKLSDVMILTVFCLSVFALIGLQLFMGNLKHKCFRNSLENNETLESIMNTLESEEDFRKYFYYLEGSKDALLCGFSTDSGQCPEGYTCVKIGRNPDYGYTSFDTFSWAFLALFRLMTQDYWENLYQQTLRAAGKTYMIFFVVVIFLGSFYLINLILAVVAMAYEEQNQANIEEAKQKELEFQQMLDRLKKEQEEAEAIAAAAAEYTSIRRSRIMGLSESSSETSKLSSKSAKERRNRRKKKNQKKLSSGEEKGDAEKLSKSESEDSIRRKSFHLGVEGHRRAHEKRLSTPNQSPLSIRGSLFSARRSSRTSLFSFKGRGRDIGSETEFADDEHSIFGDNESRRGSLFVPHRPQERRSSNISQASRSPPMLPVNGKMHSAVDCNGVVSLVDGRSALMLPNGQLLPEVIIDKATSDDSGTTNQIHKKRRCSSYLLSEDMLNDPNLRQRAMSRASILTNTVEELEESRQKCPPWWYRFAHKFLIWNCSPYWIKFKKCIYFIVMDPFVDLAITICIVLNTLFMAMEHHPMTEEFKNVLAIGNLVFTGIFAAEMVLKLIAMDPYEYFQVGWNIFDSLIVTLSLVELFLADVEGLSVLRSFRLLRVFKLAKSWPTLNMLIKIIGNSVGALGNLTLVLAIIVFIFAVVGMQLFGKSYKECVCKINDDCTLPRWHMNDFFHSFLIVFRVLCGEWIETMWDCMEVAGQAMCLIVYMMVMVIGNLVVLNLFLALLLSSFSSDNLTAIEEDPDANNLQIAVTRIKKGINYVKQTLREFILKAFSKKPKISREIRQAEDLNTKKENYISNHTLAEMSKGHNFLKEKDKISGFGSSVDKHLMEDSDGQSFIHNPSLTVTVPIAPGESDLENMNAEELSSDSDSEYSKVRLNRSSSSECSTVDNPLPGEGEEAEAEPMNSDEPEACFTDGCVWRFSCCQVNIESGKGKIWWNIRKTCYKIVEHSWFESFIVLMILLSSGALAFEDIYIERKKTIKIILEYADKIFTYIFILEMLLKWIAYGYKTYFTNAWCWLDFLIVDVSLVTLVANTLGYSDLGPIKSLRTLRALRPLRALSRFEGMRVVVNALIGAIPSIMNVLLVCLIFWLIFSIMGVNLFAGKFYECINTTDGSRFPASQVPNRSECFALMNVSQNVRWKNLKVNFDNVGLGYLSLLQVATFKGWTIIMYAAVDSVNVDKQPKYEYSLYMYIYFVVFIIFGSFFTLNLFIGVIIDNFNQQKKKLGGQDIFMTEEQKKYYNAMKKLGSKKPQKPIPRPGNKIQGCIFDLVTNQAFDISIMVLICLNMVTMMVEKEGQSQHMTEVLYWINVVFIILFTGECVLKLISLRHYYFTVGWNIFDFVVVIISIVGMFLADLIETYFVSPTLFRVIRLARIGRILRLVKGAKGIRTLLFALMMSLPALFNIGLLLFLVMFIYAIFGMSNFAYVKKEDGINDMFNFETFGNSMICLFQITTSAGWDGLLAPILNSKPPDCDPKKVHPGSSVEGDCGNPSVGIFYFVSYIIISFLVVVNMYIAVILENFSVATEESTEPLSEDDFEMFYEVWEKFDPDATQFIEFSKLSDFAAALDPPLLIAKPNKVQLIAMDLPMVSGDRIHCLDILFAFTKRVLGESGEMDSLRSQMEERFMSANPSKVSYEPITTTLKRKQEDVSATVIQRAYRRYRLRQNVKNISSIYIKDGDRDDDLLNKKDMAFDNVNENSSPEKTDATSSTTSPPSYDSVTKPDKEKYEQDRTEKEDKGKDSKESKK

SMILES | IC50 [1] [µM] | IC50 [2] [µM] | IC50 ([2]; hek293) [µM]
O=S(=O)(Nc1ncns1)c1cc(F)c(OC[C@H]2NCCO[C@@H]2c2ccc(Cl)cc2)cc1F | 1.5 |  | 
O=S(=O)(Nc1ncns1)c1cc(F)c(CO[C@H]2OCCN[C@@H]2c2ccc(F)cc2)cc1F | 2.5 |  | 
CC1(C)CN[C@@H](c2cc(Cl)cc(Cl)c2)[C@H](Oc2cc(F)c(S(=O)(=O)Nc3ncns3)cc2F)O1 | 3.3 | 4.4 | 
O=S(=O)(Nc1ncns1)c1cc(F)c(OC[C@H]2OCCN[C@@H]2c2ccc(Cl)cc2)cc1F | 29 |  | 
O=S(=O)(Nc1ncns1)c1cc(F)c(OC2OCCNC2c2cc(Cl)cc(Cl)c2)cc1F (single isomer, unassigned; isomer A) | 0.84 |  | 5.6
N#Cc1cccc(C2NCCOC2Oc2cc(F)c(S(=O)(=O)Nc3ncns3)cc2F)c1 (single isomer, unassigned; isomer A) | 0.92 | > 30 | 
COc1ccccc1C1NCCOC1Oc1cc(F)c(S(=O)(=O)Nc2ncns2)cc1F (single isomer, unassigned; isomer A) | 0.2 | > 30 | 
N#Cc1ccc(C2NCCOC2Oc2cc(F)c(S(=O)(=O)Nc3ncns3)cc2F)cc1 (single isomer, unassigned; isomer A) | 1.5 | > 30 | 
CN(C)c1noc2ccc(C3NCCOC3Oc3cc(F)c(S(=O)(=O)Nc4ncns4)cc3F)cc12 (single isomer, unassigned; isomer A) | 0.07 |  | 
O=S(=O)(Nc1ncns1)c1cc(F)c(OC2OCCNC2c2ccc(C(F)(F)F)cc2)cc1F (single isomer, unassigned; isomer A) | 0.39 | > 30 | 
CC(C)C[C@@H]1COC(Oc2cc(F)c(S(=O)(=O)Nc3ncns3)cc2F)C(c2cc(Cl)cc(Cl)c2)N1 (single isomer, unassigned; isomer A) | 1.7 |  | 
O=S(=O)(Nc1ncns1)c1cc(F)c(OC2OCCNC2c2cccc3nccnc23)cc1F (single isomer, unassigned; isomer A) | 6.6 |  | > 30
O=S(=O)(Nc1ncns1)c1cc(F)c(OC2OCCNC2c2ccc(Cl)c(Cl)c2)cc1F (single isomer, unassigned; isomer A) | 1.2 | 1 | 
CC(C)[C@H]1COC(Oc2cc(F)c(S(=O)(=O)Nc3ncns3)cc2F)C(c2cc(Cl)cc(Cl)c2)N1 (single isomer, unassigned; isomer A) | 0.43 |  | 
CC1(C)COC(Oc2cc(F)c(S(=O)(=O)Nc3ncns3)cc2F)C(c2ccc(Cl)cc2)N1 (single isomer, unassigned; isomer A) | 0.35 |  | 
O=S(=O)(Nc1ncns1)c1cc(F)c(OC2OCCNC2c2ccc3cnccc3c2)cc1F (single isomer, unassigned; isomer A) | 1.4 |  | > 30
Cn1nccc1C1NCCOC1Oc1cc(F)c(S(=O)(=O)Nc2ncns2)cc1F (single isomer, unassigned; isomer A) | 5.8 |  | > 30
O=S(=O)(Nc1ncns1)c1cc(F)c(OC2OCCNC2c2ccc(Cl)nc2)cc1F (single isomer, unassigned; isomer A) | 17 |  | > 30
O=S(=O)(Nc1ncns1)c1cc(F)c(OC2OCCNC2c2cccc(C(F)(F)F)c2)cc1F (single isomer, unassigned; isomer A) | 0.31 | 0.58 | 
CC1(C)CNC(c2cc(Cl)cc(Cl)c2)C(Oc2cc(F)c(S(=O)(=O)Nc3ncns3)cc2F)O1 (single isomer, unassigned; isomer A) | 0.14 |  | 
O=S(=O)(Nc1ncns1)c1cc(F)c(OC2OCCNC2c2ccc(F)cc2)cc1F (single isomer, unassigned; isomer A) | 0.69 | > 30 | 

SMILES | IC50 [1] [µM] | IC50 [2] [µM] | IC50 ([2]; hek293) [µM]
O=S(=O)(Nc1ncns1)c1cc(F)c(OC2OCCNC2c2ccc3ncccc3c2)cc1F (single isomer, unassigned; isomer A) | 2.8 |  | > 30
O=S(=O)(Nc1ncns1)c1cc(F)c(OC2OCCNC2c2ccc(Cl)cc2Cl)cc1F (single isomer, unassigned; isomer A) | 0.26 | 1.7 | 
O=S(=O)(Nc1ncns1)c1cc(F)c(OC2OCCNC2c2ccc3c(c2)OCO3)cc1F (single isomer, unassigned; isomer A) | 1.5 |  | > 30
COc1ccc(C2NCCOC2Oc2cc(F)c(S(=O)(=O)Nc3ncns3)cc2F)cc1 (single isomer, unassigned; isomer A) | 0.81 | > 30 | 
CC(C)C[C@H]1COC(Oc2cc(F)c(S(=O)(=O)Nc3ncns3)cc2F)C(c2cc(Cl)cc(Cl)c2)N1 (single isomer, unassigned; isomer A) | 1.1 |  | 
COc1cccc(C2NCCOC2Oc2cc(F)c(S(=O)(=O)Nc3ncns3)cc2F)c1 (single isomer, unassigned; isomer A) | 0.39 | > 30 | 
CN(C)c1noc2ccc(C3NCCOC3Oc3cc(F)c(S(=O)(=O)Nc4ncns4)cc3F)cc12 (single isomer, unassigned; isomer B) | 0.14 | 5 | 
CC(C)C[C@@H]1COC(Oc2cc(F)c(S(=O)(=O)Nc3ncns3)cc2F)C(c2cc(Cl)cc(Cl)c2)N1 (single isomer, unassigned; isomer B) | > 30 |  | 
O=S(=O)(Nc1ncns1)c1cc(F)c(OC2OCCNC2c2cccc3nccnc23)cc1F (single isomer, unassigned; isomer B) | 6.3 | > 30 | 
CC(C)[C@H]1COC(Oc2cc(F)c(S(=O)(=O)Nc3ncns3)cc2F)C(c2cc(Cl)cc(Cl)c2)N1 (single isomer, unassigned; isomer B) | 1.1 |  | 
CC1(C)COC(Oc2cc(F)c(S(=O)(=O)Nc3ncns3)cc2F)C(c2ccc(Cl)cc2)N1 (single isomer, unassigned; isomer B) | 0.58 |  | 
CC(C)[C@@H]1COC(Oc2cc(F)c(S(=O)(=O)Nc3ncns3)cc2F)C(c2cc(Cl)cc(Cl)c2)N1 (single isomer, unassigned; isomer B) | 25 |  | 
O=S(=O)(Nc1ncns1)c1cc(F)c(OC2OCCNC2c2ccc3cnccc3c2)cc1F (single isomer, unassigned; isomer B) | 0.51 | > 30 | 
O=S(=O)(Nc1ncns1)c1cc(F)c(OC2OCCNC2c2ccc(Cl)nc2)cc1F (single isomer, unassigned; isomer B) | 15 | > 30 | 
CC1(C)CNC(c2cc(Cl)cc(Cl)c2)C(Oc2cc(F)c(S(=O)(=O)Nc3ncns3)cc2F)O1 (single isomer, unassigned; isomer B) | 0.45 |  | 
O=S(=O)(Nc1ncns1)c1cc(F)c(OC2OCCNC2c2ccc3ncccc3c2)cc1F (single isomer, unassigned; isomer B) | 1.6 | > 30 | 
O=S(=O)(Nc1ncns1)c1cc(F)c(OC2OCCNC2c2ccc3c(c2)OCO3)cc1F (single isomer, unassigned; isomer B) | 1.1 | > 30 | 
Cn1nc(C(F)(F)F)cc1C1NCCOC1Oc1cc(F)c(S(=O)(=O)Nc2ncns2)cc1F (single isomer, unassigned; isomer B) | 4.5 | > 30 | 
CC(C)C[C@H]1COC(Oc2cc(F)c(S(=O)(=O)Nc3ncns3)cc2F)C(c2cc(Cl)cc(Cl)c2)N1 (stereo in doubt; 61) | 6.5 |  | 
CC(C)[C@@H]1COC(Oc2cc(F)c(S(=O)(=O)Nc3ncns3)cc2F)C(c2cc(Cl)cc(Cl)c2)N1 (stereo in doubt; 66) | 14 |  | 
